Source: paper PMC11247486, “Improving the In Vivo Stability of [^52Mn]Mn(II) Complexes with 18-Membered Macrocyclic Chelators for PET Imaging” (Journal of Medicinal Chemistry, 2024)

Tests used:
[1] = Cyclic voltammetry of the Mn(II) complexes; assay type: physicochemical; conditions: for peak-to-peak separation (ΔEp): 2 mM complex, pH ∼ 6.5
Experimental: Cyclic voltammetry experiments were performed with Mn-PYAN and Mn-CHXPYAN, using aqueous solutions with a complex concentration of 2 mM, containing 0.15 M NaCl as the supporting electrolyte (pH ∼ 6.5). The cyclic voltammograms obtained (Figure 3) show well-defined anodic and cathodic waves due to the Mn(II)/Mn(III) pair, which are characteristic of reversible or quasi-reversible processes. At the lowest scan rate (20 mV/s), the peak-to-peak separation (ΔEp) is slightly smaller for Mn-CHXPYAN than for Mn-PYAN, with values of 73 and 80 mV, respectively. When increasing the scan rate, ΔEp increases slightly, with values of 85 and 102 mV, respectively, at the highest scan rate (500 mV/s). This situation is characteristic of electrochemically quasi-reversible processes, although for Mn-CHXPYAN, the values of ΔEp are lower and present less variation with the scan rate.
This is likely related to ligand field effects due to the more symmetrical octahedral coordination around the metal ion in Mn-CHXPYAN than in Mn-PYAN, as evidenced by the shape measures mentioned above (Table S1, Supporting Information).[37] Indeed, high-spin Mn(III) complexes often display Jahn–Teller distorted octahedral coordination, while high-spin Mn(II) complexes lack any LFSE.[38],[39] The E1/2 values of 652 and 567 mV vs Ag/AgCl (3 M KCl) correspond to 862 and 777 mV vs NHE for Mn-PYAN and Mn-CHXPYAN, respectively.[40]
Cyclic voltammetry measurements were performed with a three-electrode configuration on an Autolab PGSTAT302 M potentiostat-galvanostat. A glassy-carbon disk (Metrohm 61204600) was used as the working electrode. The surface of this electrode was polished with α-Al2O3 (0.3 μm) and washed with distilled water before every measurement. The reference electrode used was a Ag/AgCl reference electrode filled with 3 M KCl (Metrohm 6.0726.100). A Pt wire was used as the counter electrode. The complex solutions (2 mM) containing […] were deoxygenated by bubbling nitrogen before each measurement.

[2] = protonation constant of the complex, KMnLH = [MnHL]/[MnL] × [H^+]; cited from earlier work
[3] = scan rate 500 mV/s, 0.15 M NaCl
[4] = vs Ag/AgCl (3 M KCl), 0.15 M NaCl

Row | Compound | peak-to-peak separation (ΔEp) ([1]; scan rate 20 mV/s, 0.15 M NaCl) [mV] | peak-to-peak separation (ΔEp) [1, 3] [mV] | half wave potential (E1/2) [1, 4] [mV] | half wave potential (E1/2) ([1]; vs NHE) [mV] | log KMnLH [2]
1 | [Mn+2].c1cc2nc(c1)CN[C@@H]1CCCC[C@H]1NCc1cccc(n1)CN[C@@H]1CCCC[C@H]1NC2 [Mn-CHXPYAN] | 73 | 85 | 567 | 777 | 
2 | [Mn+2].c1cc2nc(c1)CNCCNCc1cccc(n1)CNCCNC2 [Mn-PYAN] | 80 | 102 | 652 | 862 | 5.19
